Experimental data from PMC11927960, “Multiparameter ranking of carbazoles for anti-trypanosome lead discovery” (Frontiers in drug discovery, 2024).

Columns and labels:
[1] = Brain accumulation (brain to plasma concentration ratio); conditions: Swiss Webster, mouse
Protocol: The plasma concentration and tissue distribution of drugs were determined by Absorption Systems. […] Blood and brain samples were obtained at 1, 2, 4, and 6 h post-dosing, and plasma and brain concentrations of the drug were determined using LC-MS/MS. Stock standards for calibration were prepared in a matrix comprising equal volumes of water and mouse blood containing K2-EDTA as an anticoagulant. Working solutions were prepared in 50:50 acetonitrile–water and added to the matrix to final concentrations of 1,000, 500, 100, 50.0, 10.0, 5.00, 1.00, and 0.500 ng/mL for all compounds. Pharmacokinetic parameters were determined using Phoenix WinNonlin (v8.0) software with sparse sampling. Maximum plasma concentration (Cmax) and the time to reach maximum plasma concentration (tmax) were determined from the four data points. The area under the time concentration curve (AUClast) was calculated using the linear trapezoidal rule with calculation to a 6-h data point. Plasma half-life (t1/2) was calculated from 0.693/slope of the terminal elimination phase. Samples below the limit of detection (0.500 ng/mL) were treated as 0. […]
or CBL0187, respectively. Blood and brain samples were obtained at 1, 2, 4, and 6 h post-dosing, and plasma and brain concentrations of the carbazoles were determined using LC-MS/MS. (A) Brain tissue concentrations of curaxins at different time points (B) Ratios of […]
male and female Swiss-wester mice. […]

[2] = test system: protein synthesis in Trypanosoma brucei; assay: Protein synthesis (HPG incorporation); assay type: cell-based; conditions: for Protein Synthesis affected: DTC50 as printed in Table S3; for Effect on protein synthesis: DTC90; for Residual Translation: DTC90 of curaxin 15 min, then 60 min HPG, 1 minus inhibition vs DMSO
Protocol: FIGURE 3 Effect of curaxins on protein synthesis in Trypanosoma brucei: T. b. brucei (5 × 10^5/mL) was treated with DMSO (D: 0.1%), DTC90 of CBL0174 ([…]), or CBL0187 (600 nM) for 15 min, followed by 60-min incubation with L-Homopropargylglycine (HPG; 4 μM). Incorporated HPG was clicked to azide-Alexa Fluor-488. […] (A) Proteins were transferred to the PVDF membrane and stained for total protein (using LI-COR® Revert™ 700 Total Protein Stain). (B) The membrane was blocked with Intercept® (PBS) blocking buffer and reacted with azide-PEG3-biotin conjugate that was detected with Streptavidin IRDye® 800CW (1: 2500 dilution). (C) Quantitation of HPG signal normalized to total protein loaded per lane. Statistical significance of differences in mean total HPG incorporation (normalized to total protein) was determined with Student’s t-test.
Mid-logarithmic phase trypanosomes were rinsed and resuspended (5×10^5 cells/mL) in methionine-free RPMI supplemented with 10% fetal bovine serum (FBS). Cells were treated with DTC25 or DTC90 concentrations of CBL0174 or CBL0187 for 15 min, followed by 1-h incubation with 4 μM (final concentration) L-Homopropargylglycine (HPG) (Cayman Chemical). Cells were washed with PBS-G (PBS containing 10 mM glucose), pelleted, and resuspended (~5 × 10^6 cells) in 50 μL of permeabilization buffer (50 mM HEPES pH 7.4, 0.025% NP-40) on ice for 30 min. The pellet was mixed with 50 μL “Click-iT reaction” cocktail (20 mM Tris buffer, pH 7.4, 5 mM CuSO4, 300 mM ascorbic acid, 140 mM NaCl, and 17.5 μM azide-PEG-biotin) at room temperature for 1 h. […] HPG-labeled proteins were detected with Streptavidin IRDye® 800CW (1: 2500) and visualized on a Li-Cor® Odyssey CLx near-infrared fluorescence imaging system ([Sanz-Rodriguez et al., 2022]).

[3] = test system: endocytosis of bovine serum albumin (BSA) in Trypanosoma brucei; assay type: cell-based; conditions: DTC25; Table S3
Protocol: Cells were washed and resuspended in serum-free medium. Trypanosomes were incubated with fluorescent endocytosis ligands transferrin (Tf) or bovine serum albumin (BSA) for 30 min (37 °C). A flow cytometer was used to detect fluorescence intensity per cell. Propidium iodide (PI) was used to stain and gate out non-viable cells. Histograms present fluorescence intensity of Tf-AF488 (A) or BSA-AF647 (B) for every cell (n > 10,000 for each cargo) in DMSO or drug-treated samples. Points on the scatter plot represent mean fluorescence intensities of Tf (C) or BSA (D) from three biological replicates (calculated with FlowJo). Bars indicate mean ± SD. […]
Curaxin or DMSO-treated trypanosomes (5 × 10^5/mL) were washed with serum-free HMI-9 medium (500 uL). […] Cells were transferred to an ice-water bath, washed with cold PBS/G at 4 °C (3,000 g for 5 min), resuspended in PBS/G (500 μL) containing propidium iodide (3 μM), and analyzed on a flow cytometer (Beckman Coulter CytoFLEX S). FlowJo software (FlowJo, LLC) was used to gate trypanosomes based on size and shape (forward and side scatter features), and fluorescence intensity of endocytosed protein was measured in viable cells (negative for propidium iodide uptake). FlowJo software was used to determine the mean fluorescence intensity of each cargo in trypanosomes (at least 10,000 events). […]

[4] = test system: T. brucei Lister 427; assay: Effect of 50% serum on curaxin inhibition of trypanosome proliferation; assay type: cell-based, Trypanosoma brucei; conditions: 20, 35 or 50% FBS; Figure S3
Protocol: HMI-9 medium ([Hirumi and Hirumi, 1989]) was prepared with different final concentrations of fetal bovine serum (FBS) (20, 35, and 50%). T. brucei Lister 427 was cultured in each medium for at least 7 days. […] EC50 measurements were obtained from three independent experiments in each medium.
containing 20%, 35% or 50% FBS
At 0 h, 4x103 trypanosomes/ml in
media with drug; 37°C, 5% CO2
Cells lysed and SYBR green
Hirumi, 1989) was modified to contain 20, 35, or 50% fetal bovine serum (FBS) (total
concentration). T. b. brucei Lister 427 was first cultured in the medium for 7 days.
(50 µL). Plates were incubated for 48 h at 37 °C and 5% CO2, and the proliferation of
trypanosomes was measured using a SYBR green assay (Faria et al., 2015). Each experiment
was performed thrice, and non-linear regression fits to the data were obtained using GraphPad
Prism which was used to calculate EC50 values. The possible statistical significance of the
FBS-medium (control) was determined by Student’s T-test.

[5] = test system: T. brucei Lister427; assay: Delayed trypanocidal assay (6 h exposure, wash-off); assay type: cell-based, Trypanosoma brucei; conditions: starting cell density 1 × 10^5/mL instead of 5 × 10^5/mL

Row | SMILES | Kp ([1]; brain, oral) | Protein Synthesis affected [2] | Effect on protein synthesis [2] | Residual Translation [2] | Endocytosis BSA affected [3] | Effect of serum on anti-trypanosome potency [4] | DTC25 T. brucei Lister427 (value in parenthesis) [5] [nM] | DTC50 T. brucei Lister427 (value in parenthesis) [5] [nM] | DTC90 T. brucei Lister427 (value in parenthesis) [5] [nM] | Kp ([1]; in vivo, po)
1 | CC(=O)c1cc2c3cc(C(C)=O)c(O)cc3n(CCNC(C)C)c2cc1O [CBL0187, 1-[6-acetyl-2,7-dihydroxy-9-[2-(isopropylamino)ethyl]carbazol-3-yl]ethanone] | 15.9 | No | inhibited protein synthesis | 0.72 | No | decreases | 41 | 98 | 592 | –
2 | CC(=O)c1cc2c3cc(C(C)=O)c(O)cc3n(CCCN(C)C)c2cc1O [CBL0174, 1-[6-acetyl-9-[3-(dimethylamino)propyl]-2,7-dihydroxy-carbazol-3-yl]ethanone] | 26.9 | No | did not prevent mRNA translation | 0.94 | No | – | 60 | 122 | 513 | 27.9
